Values joined by “and” are separate entries in the source; they are usually repeats but may differ in a detail not shown here. Equal values may be shown once.
Tested on: U87 tumor
Test: Biodistribution ([^18F]JHU1221823), carrier / specific activity study
Format: in vivo, mouse
Settings: individual mouse
Excerpt: Biodistribution of Representative Compounds

[1] = NOD/SCID, U87 tumor, Carrier 700, 60 min post injection
[2] = Nude mice, U87 tumor, Baseline (~5000 mCi/μmol), 60 min post injection
[3] = Nude mice, U87 tumor, Carrier 350 (350 mCi/μmol), 60 min post injection
[4] = Nude mice, U87 tumor, Carrier 700, 60 min post injection
[5] = U87 tumor, Baseline, second block (stands before <NOD/SCID> heading), 60 min post injection

N#C[C@@H]1CCCN1C(=O)CNC(=O)c1ccnc2ccc(OCCCNC(=O)CCOCCOCCOCCOCCNC(=O)[C@H](CCCCNC(=O)c3ccc([18F])nc3)NC(=O)CN3CCN(CC(=O)O)CCN(CC(=O)O)CCN(CC(=O)O)CC3)cc12 [[^18F]JHU1221823]
Liver % ID/g [1]: 2.36 % ID/g
Lung % ID/g [1]: 3.66 % ID/g
Muscle % ID/g [1]: 1.99 % ID/g
Pancreas % ID/g [1]: 13.03 % ID/g
Salivary gland % ID/g [1]: 11.31 % ID/g
Small intestine % ID/g [1]: 3.48 % ID/g
Spleen % ID/g [1]: 1.46 % ID/g
Stomach % ID/g [1]: 1.64 % ID/g
Tumor % ID/g [1]: 7.79 % ID/g
Bladder % ID/g [2]: 2.02 % ID/g and 2.74 % ID/g
Blood % ID/g [2]: 10.83 % ID/g and 12.08 % ID/g
Brain % ID/g [2]: 0.22 % ID/g and 0.24 % ID/g
Fat % ID/g [2]: 1.10 % ID/g and 0.89 % ID/g
Femur % ID/g [2]: 1.98 % ID/g and 2.84 % ID/g
Heart % ID/g [2]: 5.09 % ID/g and 5.98 % ID/g
Kidney % ID/g [2]: 2.76 % ID/g and 3.06 % ID/g
Large intestine % ID/g [2]: 1.38 % ID/g and 1.42 % ID/g
Liver % ID/g [2]: 3.56 % ID/g and 3.06 % ID/g
Lung % ID/g [2]: 6.48 % ID/g and 7.46 % ID/g
Muscle % ID/g [2]: 1.44 % ID/g and 2.06 % ID/g
Pancreas % ID/g [2]: 3.42 % ID/g and 3.30 % ID/g
Salivary gland % ID/g [2]: 6.35 % ID/g and 7.47 % ID/g
Small intestine % ID/g [2]: 2.47 % ID/g and 2.93 % ID/g
Spleen % ID/g [2]: 2.17 % ID/g and 1.96 % ID/g
Stomach % ID/g [2]: 1.14 % ID/g and 1.32 % ID/g
Tumor % ID/g [2]: 2.14 % ID/g and 2.52 % ID/g
Bladder % ID/g [3]: 1.62 % ID/g and 1.85 % ID/g
Blood % ID/g [3]: 6.11 % ID/g and 4.56 % ID/g
Brain % ID/g [3]: 0.16 % ID/g and 0.12 % ID/g
Fat % ID/g [3]: 0.54 % ID/g and 1.24 % ID/g
Femur % ID/g [3]: 3.83 % ID/g and 4.47 % ID/g
Heart % ID/g [3]: 2.83 % ID/g and 2.18 % ID/g
Kidney % ID/g [3]: 2.25 % ID/g and 1.88 % ID/g
Large intestine % ID/g [3]: 1.92 % ID/g and 1.61 % ID/g
Liver % ID/g [3]: 2.06 % ID/g and 1.75 % ID/g
Lung % ID/g [3]: 3.70 % ID/g and 3.20 % ID/g
Muscle % ID/g [3]: 2.58 % ID/g and 2.23 % ID/g
Pancreas % ID/g [3]: 5.80 % ID/g and 6.78 % ID/g
Salivary gland % ID/g [3]: 10.81 % ID/g and 11.50 % ID/g
Small intestine % ID/g [3]: 2.29 % ID/g and 2.54 % ID/g
Spleen % ID/g [3]: 1.45 % ID/g and 1.12 % ID/g
Stomach % ID/g [3]: 1.60 % ID/g and 1.53 % ID/g
Tumor % ID/g [3]: 2.01 % ID/g and 2.53 % ID/g
Bladder % ID/g [4]: 2.15 % ID/g and 2.30 % ID/g
Blood % ID/g [4]: 10.55 % ID/g and 9.33 % ID/g
Brain % ID/g [4]: 0.21 % ID/g and 0.19 % ID/g
Fat % ID/g [4]: 0.41 % ID/g and 0.56 % ID/g
Femur % ID/g [4]: 2.93 % ID/g and 3.18 % ID/g
Heart % ID/g [4]: 4.92 % ID/g and 4.38 % ID/g
Kidney % ID/g [4]: 2.54 % ID/g and 2.52 % ID/g
Large intestine % ID/g [4]: 1.45 % ID/g and 1.79 % ID/g
Liver % ID/g [4]: 2.76 % ID/g and 2.85 % ID/g
Lung % ID/g [4]: 6.05 % ID/g and 5.08 % ID/g
Muscle % ID/g [4]: 2.06 % ID/g and 2.07 % ID/g
Pancreas % ID/g [4]: 3.40 % ID/g and 4.43 % ID/g
Salivary gland % ID/g [4]: 9.08 % ID/g and 7.18 % ID/g
Small intestine % ID/g [4]: 2.37 % ID/g and 1.98 % ID/g
Spleen % ID/g [4]: 1.75 % ID/g and 1.70 % ID/g
Stomach % ID/g [4]: 1.18 % ID/g and 1.57 % ID/g
Tumor % ID/g [4]: 1.81 % ID/g and 2.22 % ID/g
Bladder % ID/g [5]: 3.22 % ID/g and 10.62 % ID/g
Blood % ID/g [5]: 11.98 % ID/g and 10.01 % ID/g
Brain % ID/g [5]: 0.23 % ID/g and 0.21 % ID/g
Fat % ID/g [5]: 0.53 % ID/g and 0.71 % ID/g
Femur % ID/g [5]: 1.95 % ID/g and 2.78 % ID/g
Heart % ID/g [5]: 7.41 % ID/g and 6.48 % ID/g
Kidney % ID/g [5]: 3.14 % ID/g and 3.67 % ID/g
Large intestine % ID/g [5]: 1.66 % ID/g and 2.70 % ID/g
Liver % ID/g [5]: 4.04 % ID/g and 4.72 % ID/g
Lung % ID/g [5]: 7.27 % ID/g and 6.79 % ID/g
Muscle % ID/g [5]: 1.14 % ID/g and 2.13 % ID/g
Pancreas % ID/g [5]: 6.82 % ID/g and 9.52 % ID/g
Salivary gland % ID/g [5]: 11.69 % ID/g and 12.09 % ID/g
Small intestine % ID/g [5]: 3.79 % ID/g and 3.54 % ID/g
Spleen % ID/g [5]: 2.33 % ID/g and 1.99 % ID/g
Stomach % ID/g [5]: 1.66 % ID/g and 1.97 % ID/g
Tumor % ID/g [5]: 1.17 % ID/g and 5.00 % ID/g
Bladder % ID/g (carrier not given): 6.41 % ID/g and 2.64 % ID/g
Blood % ID/g (carrier not given): 9.28 % ID/g and 9.80 % ID/g
Brain % ID/g (carrier not given): 0.23 % ID/g and 0.22 % ID/g
Fat % ID/g (carrier not given): 0.47 % ID/g and 1.68 % ID/g
Femur % ID/g (carrier not given): 2.55 % ID/g and 3.11 % ID/g
Heart % ID/g (carrier not given): 4.31 % ID/g and 4.98 % ID/g
Kidney % ID/g (carrier not given): 2.70 % ID/g and 2.77 % ID/g
Large intestine % ID/g (carrier not given): 1.29 % ID/g and 1.69 % ID/g
Liver % ID/g (carrier not given): 2.68 % ID/g and 3.29 % ID/g
Lung % ID/g (carrier not given): 5.58 % ID/g and 5.91 % ID/g
Muscle % ID/g (carrier not given): 1.79 % ID/g and 1.78 % ID/g
Pancreas % ID/g (carrier not given): 1.62 % ID/g and 2.66 % ID/g
Salivary gland % ID/g (carrier not given): 7.44 % ID/g and 6.43 % ID/g
Small intestine % ID/g (carrier not given): 2.59 % ID/g and 3.46 % ID/g
Spleen % ID/g (carrier not given): 1.85 % ID/g and 2.43 % ID/g
Stomach % ID/g (carrier not given): 0.84 % ID/g and 1.45 % ID/g
Tumor % ID/g (carrier not given): 4.35 % ID/g and 7.0+ % ID/g

From patent publication US20240382629A1, “HETEROBIVALENT AND HOMOBIVALENT AGENTS TARGETING FIBROBLAST ACTIVATION PROTEIN ALPHA AND/OR PROSTATE-SPECIFIC MEMBRANE ANTIGEN” (The Johns Hopkins University, priority 2021, published 2024)
